Assay results: patent publication US20240382629A1, “HETEROBIVALENT AND HOMOBIVALENT AGENTS TARGETING FIBROBLAST ACTIVATION PROTEIN ALPHA AND/OR PROSTATE-SPECIFIC MEMBRANE ANTIGEN” (The Johns Hopkins University, priority 2021, published 2024)
pIC50, pKi: −log10 of the molar value.

Assays:
DPPIV = DPPIV (Homo sapiens (Human), UniProt P27487); assay: DPPIV inhibition assay (recombinant enzyme, H-Gly-Pro-AMC substrate); type: biochemical
Procedure: (§1) PSMA binding affinities of the compounds were determined using a competitive inhibition assay as previously reported. […] FAP, prolyl endopeptidase (PREP), and […] (DPPIV) inhibition assays: Recombinant enzymes (FAP, PREP, DPPIV) were purchased from R&D Systems (Minneapolis, MN). […] Z-Gly-Pro-AMC was used as a substrate for FAP and PREP. H-Gly-Pro-AMC was used as a substrate for DPPIV. The recombinant enzyme (0.4 μg/mL) was incubated with varying amounts of the test articles in the presence of the designated substrate (80 μM) for 10 min at room temperature. Fluorescence intensity was measured with 380 nm excitation and 460 nm emission using the Cytation 5 Cell Imaging Multi-Mode Reader (BioTek, Winooski, VT). IC50 and Ki values were obtained using a sigmoidal dose-response function.

FAP = FAP (Homo sapiens (Human), UniProt Q12884); assay: FAP inhibition assay (recombinant enzyme, Z-Gly-Pro-AMC substrate); type: biochemical; settings: Table 3
Chain of FAP (Q12884 whole entry): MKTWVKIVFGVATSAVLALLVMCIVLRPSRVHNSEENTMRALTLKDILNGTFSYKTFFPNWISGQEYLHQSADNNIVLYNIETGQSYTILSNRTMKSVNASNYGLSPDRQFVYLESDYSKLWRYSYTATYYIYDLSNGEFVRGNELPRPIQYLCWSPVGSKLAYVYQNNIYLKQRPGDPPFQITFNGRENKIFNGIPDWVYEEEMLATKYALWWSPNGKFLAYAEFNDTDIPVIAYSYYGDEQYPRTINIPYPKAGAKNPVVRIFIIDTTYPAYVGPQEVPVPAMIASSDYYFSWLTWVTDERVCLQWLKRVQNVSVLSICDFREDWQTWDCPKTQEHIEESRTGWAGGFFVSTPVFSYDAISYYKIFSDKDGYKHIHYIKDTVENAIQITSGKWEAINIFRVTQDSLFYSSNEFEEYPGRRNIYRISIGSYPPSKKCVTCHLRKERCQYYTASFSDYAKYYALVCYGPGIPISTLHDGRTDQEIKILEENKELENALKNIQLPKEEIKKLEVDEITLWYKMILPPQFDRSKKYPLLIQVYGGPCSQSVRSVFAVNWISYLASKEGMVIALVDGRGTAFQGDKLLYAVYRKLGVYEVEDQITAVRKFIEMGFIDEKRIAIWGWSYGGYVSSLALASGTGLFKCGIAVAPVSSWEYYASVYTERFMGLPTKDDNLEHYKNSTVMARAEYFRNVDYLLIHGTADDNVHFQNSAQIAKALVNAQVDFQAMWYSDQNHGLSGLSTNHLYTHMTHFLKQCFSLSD
Procedure: as §1

Chain of DPPIV (P27487 whole entry): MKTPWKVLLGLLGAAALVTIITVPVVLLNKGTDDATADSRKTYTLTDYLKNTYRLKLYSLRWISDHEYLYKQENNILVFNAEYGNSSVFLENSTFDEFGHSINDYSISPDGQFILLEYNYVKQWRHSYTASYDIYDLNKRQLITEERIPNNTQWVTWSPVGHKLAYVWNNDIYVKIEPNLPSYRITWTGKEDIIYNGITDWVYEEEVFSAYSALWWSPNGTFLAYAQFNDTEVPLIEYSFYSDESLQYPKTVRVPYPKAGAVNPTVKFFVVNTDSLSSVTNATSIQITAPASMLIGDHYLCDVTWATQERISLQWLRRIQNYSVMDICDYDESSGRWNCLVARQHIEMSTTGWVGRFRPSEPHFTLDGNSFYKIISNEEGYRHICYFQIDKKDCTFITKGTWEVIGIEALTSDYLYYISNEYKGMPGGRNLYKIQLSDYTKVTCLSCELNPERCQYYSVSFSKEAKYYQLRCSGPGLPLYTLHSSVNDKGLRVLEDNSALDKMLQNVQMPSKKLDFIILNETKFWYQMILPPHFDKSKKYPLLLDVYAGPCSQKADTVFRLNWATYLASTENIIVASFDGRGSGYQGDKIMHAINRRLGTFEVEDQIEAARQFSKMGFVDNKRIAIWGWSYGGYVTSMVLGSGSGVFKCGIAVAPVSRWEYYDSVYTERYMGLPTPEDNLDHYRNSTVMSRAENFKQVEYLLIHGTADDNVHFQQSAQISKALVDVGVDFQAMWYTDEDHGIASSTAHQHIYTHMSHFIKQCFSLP

Row | pKi (DPPIV) | pIC50 (FAP) | pKi (FAP; read-out: FAP Ki) | pIC50 (DPPIV; Table 3, read-out: DPPIV IC50) | SMILES
1 | 6.10 | – | – | – | N#C[C@@H]1CC(F)(F)CN1C(=O)CNC(=O)c1ccnc2ccc(OCCCN3CCN(C(=O)CN4CCN(CC(=O)O)CCN(CC(=O)O)CCN(CC(=O)O)CC4)CC3)cc12 [FAPI-04, reference compound]
2 | – | 9.92 | 10.62 | < 4.70 | N#C[C@@H]1CCCN1C(=O)CNC(=O)c1ccnc2ccc(F)cc12 [JHU1220450]
